The record followed here is ChEMBL document CHEMBL1201862, “PubChem BioAssay data set” (2004).

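A five-concentration, 48-hour dose response in 96-well plates underlies each endpoint, interpolated linearly between surrounding concentrations. Abbreviation: GI50, concentration required for 50% inhibition of growth.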 The source made the active and inactive calls. Rule as the data show it: active = GI50 up to about 1.1 µM and inactive = higher.

Some test systems named below: DLD-1; HOP-18; LXFL 529; M19-MEL; RXF 631; DMS-114; DMS-273; KM-20L2; XF498.
Test in all cases: NCI anticancer screen, dose series, 48 h

With `COc1ccc2nc(-c3ccccn3)cc(O)c2c1`, the GI50 with DLD-1 was 52.6 µM (inactive); in the experiment with HOP-18, 61.7 µM (inactive); in the experiment with LXFL 529 it was 41.5 µM (inactive); in the experiment on M19-MEL, 31.8 µM (inactive); in the experiment on RXF 631, 85.1 µM (inactive).
On to `CCCCCCCCCCCCCC(=O)OC(/C=C/C(C)C)C(O)C(O)C(OC)C(=O)NC1CCCCNC1=O` (stereo not drawn), for which the GI50 in the experiment on DLD-1 was 0.637 µM (active); in the experiment on DMS-114, 0.615 µM (active); with DMS-273 it was 0.0916 µM (active); in the experiment on HOP-18, 2.23 µM (inactive); with KM-20L2 it was 1.46 µM (inactive); in the experiment with LXFL 529 it was 1.39 µM (inactive). In the experiment with XF498, the GI50 was 1.78 µM (inactive).
As to `CC(=O)NC1C(OCc2ccccc2)OC(COC(=O)CCCCCCCCCCNC(=O)c2cccc3c(=O)c4ccccc4[nH]c23)C(O)C1OC(C)C(=O)NC(C)C(=O)NC(CCC(N)=O)C(N)=O` (stereo not drawn), the GI50 is 95.9 µM (inactive) in the experiment on DLD-1; 36.3 µM (inactive) in the experiment on DMS-114; 57.8 µM (inactive) in the experiment on DMS-273; 59 µM (inactive) with HOP-18; > 100 µM (inactive) in the experiment with KM-20L2; 37.3 µM (inactive) in the experiment with LXFL 529. Besides, the GI50 with M19-MEL was 75.5 µM (inactive); in the experiment with RXF 631, 19.5 µM (inactive); with XF498, 38.7 µM (inactive).
For the compound `CC(C)C/C(CC(=O)CCC(=O)Nc1ccccc1[N+](=O)[O-])=N\NC(=O)c1cc2ccccc2cc1O`, the GI50 in the experiment with DLD-1 was 55.2 µM (inactive); in the experiment on DMS-114, 36.1 µM (inactive); in the experiment on HOP-18, 21.8 µM (inactive); with KM-20L2 it was 32.1 µM (inactive); in the experiment with LXFL 529, 29.7 µM (inactive); with M19-MEL, 24.2 µM (inactive). Further, the GI50 in the experiment with RXF 631 is 31.2 µM (inactive); in the experiment on XF498, 30.7 µM (inactive).
Turning to `S=c1cc(S)c2c(=S)sc3nc4ccccn4c(=S)c3c2s1`, the GI50 is > 100 µM (inactive) in the experiment with DLD-1; 7.03 µM (inactive) in the experiment with DMS-114; 63.4 µM (inactive) in the experiment on DMS-273; > 100 µM (inactive) with HOP-18; 46.3 µM (inactive) in the experiment with KM-20L2; 35.5 µM (inactive) with M19-MEL. For the same compound, the GI50 with XF498 is > 100 µM (inactive).
Regarding `C/C=C(\CCOS(=O)(=O)c1ccc(C)cc1)[Si](C)(C)C`, the GI50 in the experiment on DLD-1, with DMS-114, in the experiment on DMS-273, in the experiment with HOP-18, in the experiment with KM-20L2 and with LXFL 529 was > 100 µM (inactive) throughout. In addition, the GI50 in the experiment on M19-MEL, with RXF 631 and in the experiment on XF498 was > 100 µM (inactive) each time.
As to `O=c1c2ccccc2nc(-c2ccccc2)n1NC(=S)Nc1ccc(Cl)cc1`, the GI50 with DLD-1 is > 100 µM (inactive); in the experiment on DMS-114, 34.4 µM (inactive); with DMS-273 it was > 100 µM (inactive); with HOP-18, > 100 µM (inactive); in the experiment on LXFL 529, 48.6 µM (inactive); in the experiment on M19-MEL, 52.6 µM (inactive).
For the compound `COc1ccc(C2CC(c3cc(C)ccc3O)=NC(N)=N2)cc1` (stereo not drawn), the GI50 with DLD-1, in the experiment with DMS-114, in the experiment with DMS-273, in the experiment with HOP-18, with KM-20L2 and in the experiment on LXFL 529 was > 100 µM (inactive) in each case. The GI50 in the experiment with M19-MEL and with XF498 was > 100 µM (inactive) throughout.
For `COC(=O)c1cc2c(c(C(=O)OC)c1O)C(=O)C=CC2=O`, the GI50 is > 21.5 µM (inactive) with DLD-1; > 48.6 µM (inactive) with DMS-114; 34.1 µM (inactive) with DMS-273; 4.88 µM (inactive) in the experiment with HOP-18; > 41.6 µM (inactive) with KM-20L2; 11.6 µM (inactive) in the experiment on LXFL 529. Besides, the GI50 is > 43.8 µM (inactive) in the experiment on M19-MEL, 34.8 µM (inactive) in the experiment with RXF 631 and > 9.1 µM (inactive) with XF498.
With `O=C(CSc1nnc(-c2ccc(/N=C\c3ccc(Cl)cc3)cc2)o1)Nc1ccc(Cl)cc1`, the GI50 with DMS-114, in the experiment with DMS-273, in the experiment with HOP-18, with KM-20L2, in the experiment with LXFL 529 and with M19-MEL was > 100 µM (inactive) each time. For the same compound, the GI50 in the experiment on XF498 was > 100 µM (inactive).
Consider `N#C/C(=C/c1cccnc1)C(=O)c1ccccc1`, for which the GI50 in the experiment with DLD-1, with DMS-114, in the experiment on DMS-273, in the experiment on HOP-18, in the experiment with KM-20L2 and in the experiment with LXFL 529 was > 100 µM (inactive) each time. For the same compound, the GI50 in the experiment with M19-MEL and with XF498 was > 100 µM (inactive) each time.
For `CCOC12SC(Nc3ccc(C)cc3)=NN1C(=S)N(C)N=C2C` (stereo not drawn), the GI50 in the experiment on DLD-1, in the experiment on DMS-114, with DMS-273, with HOP-18, in the experiment on KM-20L2 and in the experiment on LXFL 529 was > 100 µM (inactive) throughout. For the same compound, in the experiment with M19-MEL, the GI50 was > 100 µM (inactive).
On to `Cc1cc2c([nH]c3ccccc32)c2c1OC(C)(C)C1C3CC(C)(C)Oc4c(C)cc5c6ccccc6n(c5c43)C21` (stereo not drawn), for which the GI50 with DMS-114, in the experiment on DMS-273, with HOP-18, in the experiment with KM-20L2, in the experiment with LXFL 529 and in the experiment with M19-MEL was > 100 µM (inactive) in each case.
With `Cc1ccc([S+]([O-])C(C)C(Cl)c2ccccc2)cc1` (stereo not drawn), the GI50 in the experiment with DLD-1 was > 100 µM (inactive); with DMS-114, 28.2 µM (inactive); in the experiment on DMS-273 it was > 100 µM (inactive); in the experiment with HOP-18, > 100 µM (inactive); with KM-20L2 it was > 100 µM (inactive); in the experiment with LXFL 529, 81.1 µM (inactive). Also, the GI50 in the experiment on M19-MEL is 54.3 µM (inactive).
For the compound `N#Cc1c2ccccc2cn1-c1ccc(F)cc1`, the GI50 with DLD-1 was 48.8 µM (inactive); in the experiment with DMS-114, 16.2 µM (inactive); with DMS-273, > 10 µM (inactive); in the experiment on KM-20L2, 31.9 µM (inactive); with LXFL 529 it was 31.3 µM (inactive); in the experiment on M19-MEL, 37.8 µM (inactive). Moreover, the GI50 in the experiment with XF498 is 42.2 µM (inactive).
Consider `CSc1nc(SC)c2c(C(N)=S)n[nH]c2n1`, for which the GI50 in the experiment with DLD-1 is 37 µM (inactive); in the experiment with DMS-114, 30.1 µM (inactive); in the experiment on DMS-273 it was 30 µM (inactive); in the experiment with KM-20L2, 23.1 µM (inactive); in the experiment on LXFL 529 it was 29.6 µM (inactive); in the experiment with M19-MEL it was 28.2 µM (inactive). In addition, the GI50 in the experiment on RXF 631 was 32 µM (inactive).
Regarding `Cc1cc2c(c3nocc13)C(=O)c1ccccc1C2=O`, the GI50 with DLD-1, in the experiment on DMS-114, in the experiment with DMS-273, in the experiment with HOP-18, in the experiment on KM-20L2 and with LXFL 529 was > 100 µM (inactive) throughout. Also, the GI50 with M19-MEL and in the experiment with RXF 631 was > 100 µM (inactive) throughout.
Consider `COc1cc(/C=C/c2ccc(OC)c(OC)c2OC)cc(OC)c1OC`, for which the GI50 in the experiment on DLD-1 is 18.3 µM (inactive); in the experiment on DMS-114, 18.2 µM (inactive); with DMS-273, 16.4 µM (inactive); with HOP-18, 17.5 µM (inactive); in the experiment with KM-20L2, 20.2 µM (inactive); in the experiment with LXFL 529, 17.3 µM (inactive). Further, the GI50 is 20.2 µM (inactive) with M19-MEL, 20 µM (inactive) in the experiment on RXF 631 and 25.5 µM (inactive) with XF498.
Regarding `[N-]=[N+]=NC1C(Br)C(=O)NC(=O)N1[C@H]1C[C@H](O)[C@@H](CO)O1` (stereo partly drawn), the GI50 in the experiment on DLD-1, with DMS-273, in the experiment on KM-20L2, with LXFL 529 and with XF498 was > 100 µM (inactive) in each case.
Take `COc1ccc2nc3ccccc3c(NCCCCCN(CCCl)CCCl)c2c1`: the GI50 is 0.073 µM (active) with DMS-114; < 0.0365 µM (active) with DMS-273; 0.306 µM (active) in the experiment with HOP-18; 0.0647 µM (active) in the experiment on KM-20L2; 0.112 µM (active) with LXFL 529; 0.116 µM (active) in the experiment with M19-MEL. For the same compound, the GI50 in the experiment on XF498 is 0.051 µM (active).
With `COc1cc2c(c3c1c(=O)c1ccccc1n3C)C=CC(C)(C)O2` [ACRONINE], the GI50 was > 100 µM (inactive) with DLD-1; 45.4 µM (inactive) in the experiment with DMS-114; 23.3 µM (inactive) with DMS-273; 56 µM (inactive) in the experiment with HOP-18; 49.9 µM (inactive) in the experiment on KM-20L2; 94 µM (inactive) in the experiment with LXFL 529. Also, the GI50 with M19-MEL is 72.3 µM (inactive).
